For 26 compounds, EC50 results are on record in patent US10508104B2, “6-hydroxy-5-(phenyl/heteroarylsulfonyl)pyrimidin-4(1H)-one as APJ agonists” (Bristol-Myers Squibb Company, priority 2016, dated 2019).

A word on the EC50: it is the midpoint of the concentration-response curve.

In this experiment the target is human APJ receptor (Homo sapiens (Human), UniProt P35414). Put plainly: Intracellular cAMP accumulation assay (APJ hcAMP, HTRF). It is filed as cell-based. Particulars: HEK293 cells stably expressing human APJ receptor; inhibition of forskolin-mediated cAMP production; read-out: Human APJ cAMP EC50 Potency range. The method, boiled down:
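HEK293 cells stably expressing human APJ, 5,000 per well, incubated 30 min at rt with compound, […] and 2 μM forskolin. cAMP measured by HTRF against a cAMP standard curve as inhibition of forskolin-driven production. EC50 from variable-slope sigmoidal fit.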

Chain of human APJ receptor (P35414 whole entry): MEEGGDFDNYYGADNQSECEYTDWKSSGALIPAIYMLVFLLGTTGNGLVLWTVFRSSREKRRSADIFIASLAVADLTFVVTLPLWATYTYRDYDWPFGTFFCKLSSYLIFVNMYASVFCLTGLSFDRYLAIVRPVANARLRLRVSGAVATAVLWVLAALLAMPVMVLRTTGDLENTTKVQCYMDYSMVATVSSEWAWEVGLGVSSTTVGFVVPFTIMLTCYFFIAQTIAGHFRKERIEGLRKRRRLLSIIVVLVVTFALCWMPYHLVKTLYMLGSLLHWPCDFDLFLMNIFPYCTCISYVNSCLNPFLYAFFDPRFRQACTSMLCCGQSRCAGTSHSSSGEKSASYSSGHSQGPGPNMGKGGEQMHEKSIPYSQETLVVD

`CCCCc1nc(=O)c(S(=O)(=O)c2ccc(-c3cccn(C)c3=O)cc2)c(O)n1[C@@H](CC)c1cccc(C#N)c1` [Example 504, 3-[(1S)-1-{2-butyl-6-hydroxy-5-[4-(1-methyl-2-oxo-1,2-dihydropyridin-3-yl)benzenesulfonyl]-4-oxo-1,4-dihydropyrimidin-1-yl}propyl]benzonitrile]: the half-maximal effective concentration (EC50) is 0.01 to 10 nM.
As for `CCCCc1nc(=O)c(S(=O)(=O)c2ccc(-c3cccnc3F)cc2)c(O)n1[C@@H](CC)c1cccc(C#N)c1` [Example 505, 3-[(1S)-1-{2-butyl-5-[4-(2-fluoropyridin-3-yl)benzenesulfonyl]-6-hydroxy-4-oxo-1,4-dihydropyrimidin-1-yl}propyl]benzonitrile], the EC50 is 0.01 to 10 nM.
In the case of `CCCCc1nc(=O)c(S(=O)(=O)c2ccc(-c3ccnc(F)c3F)cc2)c(O)n1[C@@H](CC)c1cccc(C#N)c1` [Example 506, 3-[(1S)-1-{2-butyl-5-[4-(2,3-difluoropyridin-4-yl)benzenesulfonyl]-6-hydroxy-4-oxo-1,4-dihydropyrimidin-1-yl}propyl]benzonitrile] it was 0.01 to 10 nM; in that of `CCCCc1nc(=O)c(S(=O)(=O)c2ccc(-c3ccccc3C(=O)NC)cc2)c(O)n1[C@@H](CC)c1cccc(C#N)c1` [Example 507, 4′-({2-butyl-1-[(1S)-1-(3-cyanophenyl)propy1]-6-hydroxy-4-oxo-1,4-dihydropyrimidin-5-yl}sulfonyl)-N-methyl-[1,1′-biphenyl]-2-carboxamide], 0.01 to 10 nM.
In the case of `CCCCc1nc(=O)c(S(=O)(=O)c2ccc(-c3cnc(OC)nc3OC)cc2)c(O)n1[C@@H](CC)c1cccc(C#N)c1` [Example 508, 3-[(1S)-1-{2-butyl-5-[4-(2,4-dimethoxypyrimidin-5-yl)benzenesulfonyl]-6-hydroxy-4-oxo-1,4-dihydropyrimidin-1-yl}propyl]benzonitrile], the EC50 fell in the range of 0.01 to 10 nM.
Take `CCCCc1nc(=O)c(S(=O)(=O)c2ccc(-c3cccnc3C(N)=O)cc2)c(O)n1[C@@H](CC)c1cccc(C#N)c1` [Example 509, 3-[4-({2-butyl-1-[(1S)-1-(3-cyanophenyl)propyl]-6-hydroxy-4-oxo-1,4-dihydropyrimidin-5-yl}sulfonyl)phenyl] pyridine-2-carboxamide]: the EC50 was 0.01 to 10 nM.
`CCCCc1nc(=O)c(S(=O)(=O)c2ccc(-c3ccnc4[nH]ccc34)cc2)c(O)n1[C@@H](CC)c1cccc(C#N)c1` [Example 510, 3-[(1S)-1-[2-buty1-6-hydroxy-4-oxo-5-(4-{1H-pyrrolo[2,3-b]pyridin-4-yl}benzenesulfonyl)-1,4-dihydropyrimidin-1-yl]propyl]benzonitrile]: the EC50 was in the range of 0.01 to 10 nM.
In the case of `CCCCc1nc(=O)c(S(=O)(=O)c2ccc(-c3ccccc3F)cc2)c(O)n1[C@@H](CC)c1cccc(C#N)c1` [Example 511, 3-[(1S)-1-[2-butyl-5-({2′-fluoro-[1,1′-biphenyl]-4-yl}sulfonyl)-6-hydroxy-4-oxo-1,4-dihydropyrimidin-1-yl]propyl]benzonitrile] it was 0.01 to 10 nM.
In the case of `CCCCc1nc(=O)c(S(=O)(=O)c2ccc(-c3ccncc3F)cc2)c(O)n1[C@@H](CC)c1cccc(C#N)c1` [Example 512, 3-[(1S)-1-{2-butyl-5-[4-(3-fluoropyridin-4-yI)benzenesulfonyl]-6-hydroxy-4-oxo-1,4-dihydropyrimidin-1-yl}propyl]benzonitrile] it was 0.01 to 10 nM; in that of `CCCCc1nc(=O)c(S(=O)(=O)c2ccc(-c3ccccc3C(=O)N(C)C)cc2)c(O)n1[C@@H](CC)c1cccc(C#N)c1` [Example 513, 4′-({2-butyl-1-[(1S)-1-(3-cyanophenyl)propyl]-6-hydroxy-4-oxo-1,4-dihydropyrimidin-5-yl}sulfonyl)-N,N-dimethyl-[1,1′-biphenyl]-2-carboxamide], 0.01 to 10 nM.
In the case of `CCCCc1nc(=O)c(S(=O)(=O)c2ccc(-c3ccc(F)cc3C(N)=O)cc2)c(O)n1[C@@H](CC)c1ccc(C#N)c(F)c1` [Example 514, 4′-({2-butyl-1-[(1S)-1-(4-cyano-3-fluorophenyl)propyl]-6-hydroxy-4-oxo-1,4-dihydropyrimidin-5-yl}sulfonyl)-4-fluoro-[1,1′-biphenyl]-2-carboxamide], the EC50 was in the range of 0.01 to 10 nM.
In the case of `CCCCc1nc(=O)c(S(=O)(=O)c2ccc(-c3cccnc3C)cc2)c(O)n1[C@@H](CC)c1ccc(C#N)c(F)c1` [Example 515, 4-[(1S)-1-{2-butyl-6-hydroxy-5-[4-(2-methylpyridin-3-yl)benzenesulfonyl]-4-oxo-1,4-dihydropyrimidin-1-yl}propyl]-2-fluorobenzonitrile] it was 0.01 to 10 nM; in that of `CCCCc1nc(=O)c(S(=O)(=O)c2ccc(-c3ccncc3C)cc2)c(O)n1[C@@H](CC)c1ccc(C#N)c(F)c1` [Example 516, 4-[(1S)-1-{2-butyl-6-hydroxy-5-[4-(3-methylpyridin-4-yl)benzenesulfonyl]-4-oxo-1,4-dihydropyrimidin-1-yl}propyl]-2-fluorobenzonitrile], 0.01 to 10 nM.
As to `CCCCc1nc(=O)c(S(=O)(=O)c2ccc(-c3ccnc(F)c3C)cc2)c(O)n1[C@@H](CC)c1ccc(C#N)c(F)c1` [Example 517, 4-[(1S)-1-{2-butyl-5-[4-(2-fluoro-3-methylpyridin-4-yl)benzenesulfonyl]-6-hydroxy-4-oxo-1,4-dihydropyrimidin-1-yl}propyl]-2-fluorobenzonitrile], the concentration giving a half-maximal response (EC50) lay within 0.01 to 10 nM.
In the case of `CCCCc1nc(=O)c(S(=O)(=O)c2ccc(-c3cccn(C)c3=O)cc2)c(O)n1[C@@H](CC)c1ccc(C#N)c(F)c1` [Example 518, 4-[(1S)-1-{2-butyl-6-hydroxy-5-[4-(1-methyl-2-oxo-1,2-dihydropyridin-3-yl)benzenesulfonyl]-4-oxo-1,4-dihydropyrimidin-1-yl}propyl]-2-fluorobenzonitrile] it was 0.01 to 10 nM; in that of `CCCCc1nc(=O)c(S(=O)(=O)c2ccc(-c3ccc(F)nc3C)cc2)c(O)n1[C@@H](CC)c1ccc(C#N)c(F)c1` [Example 519, 4-[(1S)-1-{2-butyl-5-[4-(6-fluoro-2-methylpyridin-3-yl)benzenesulfonyl]-6-hydroxy-4-oxo-1,4-dihydropyrimidin-1-yl}propyl]-2-fluorobenzonitrile], 0.01 to 10 nM.
In the case of `CCCCc1nc(=O)c(S(=O)(=O)c2ccc(-c3ccccc3C(=O)NC)cc2)c(O)n1[C@@H](CC)c1ccc(C#N)c(F)c1` [Example 520, 4′-({2-butyl-1-[(1S)-1-(4-cyano-3-fluorophenyl)propyl]-6-hydroxy-4-oxo-1,4-dihydropyrimidin-5-yl}sulfonyl)-N-methyl-[1,1′-biphenyl]-2-carboxamide] it was 0.01 to 10 nM; in that of `CCCCc1nc(=O)c(S(=O)(=O)c2ccc(-c3ccccc3C(=O)N(C)C)cc2)c(O)n1[C@@H](CC)c1ccc(C#N)c(F)c1` [Example 521, 4′-({2-butyl-1-[(1S)-1-(4-cyano-3-fluorophenyl)propyl]-6-hydroxy-4-oxo-1,4-dihydropyrimidin-5-yl}sulfonyl)-N,N-dimethyl-[1,1′-biphenyl]-2-carboxamide], 0.01 to 10 nM; in that of `CCCCc1nc(=O)c(S(=O)(=O)c2ccc(-c3ccccc3C(=O)NC3CC3)cc2)c(O)n1[C@@H](CC)c1cccc(C#N)c1` [Example 522, 4′-({2-butyl-1-[(1S)-1-(3-cyanophenyl)propyl]-6-hydroxy-4-oxo-1,4-dihydropyrimidin-5-yl}sulfonyl)-N-cyclopropyl-[1,1′-biphenyl]-2-carboxamide], 0.01 to 10 nM.
In the case of `CCCCc1nc(=O)c(S(=O)(=O)c2ccc(-c3cccc(C(=O)NC)c3)cc2)c(O)n1[C@@H](CC)c1cccc(C#N)c1` [Example 523, 4′-({2-butyl-1-[(1S)-1-(3-cyanophenyl)propyl]-6-hydroxy-4-oxo-1,4-dihydropyrimidin-5-yl}sulfonyl)-N-methyl-[1,1′-biphenyl]-3-carboxamide] it was 0.01 to 10 nM; in that of `CCCCc1nc(=O)c(S(=O)(=O)c2ccc(-c3cccc4c3C(=O)NC4)cc2)c(O)n1[C@H](c1cccc(C#N)c1)C1CC1` [Example 524, 3-[(S)-{2-butyl-6-hydroxy-4-oxo-5-[4-(3-oxo-2,3-dihydro-1H-isoindol-4-yl)benzenesulfonyl]-1,4-dihydropyrimidin-1-yl}(cyclopropyl)methyl] benzonitrile], 0.01 to 10 nM.
Turning to `CCCCc1nc(=O)c(S(=O)(=O)c2ccc(-c3ccc(C(N)=O)cc3F)cc2)c(O)n1[C@@H](CC)c1cccc(C#N)c1` [Example 525, 4′-({2-butyl-1-[(1S)-1-(3-cyanophenyl)propyl]-6-hydroxy-4-oxo-1,4-dihydropyrimidin-5-yl}sulfonyl)-2-fluoro-[1,1′-biphenyl]-4-carboxamide], the EC50 lay in the range of 0.01 to 10 nM.
For `CCCCc1nc(=O)c(S(=O)(=O)c2ccc(-c3ccnc(F)c3C)cc2)c(O)n1[C@@H](CC)c1ccnc(C#N)c1` [Example 526, 4-[(1S)-1-{2-butyl-5-[4-(2-fluoro-3-methylpyridin-4-yl)benzenesulfonyl]-6-hydroxy-4-oxo-1,4-dihydropyrimidin-1-yl}propyl]pyridine-2-carbonitrile], the EC50 lay in the range of 0.01 to 10 nM.
Consider `CCCCc1nc(=O)c(S(=O)(=O)c2ccc(-c3ccncc3C)cc2)c(O)n1[C@@H](CC)C1CCOCC1` [Example 527, 2-butyl-6-hydroxy-5-[4-(3-methylpyridin-4-yl)benzenesulfonyl]-1-[(1S)-1-(oxan-4-yl)propyl]-1,4-dihydropyrimidin-4-one], for which the concentration for a half-maximal effect (EC50) was 0.01 to 10 nM.
In the case of `CCCCc1nc(=O)c(S(=O)(=O)c2ccc(-c3ccnc(F)c3C)cc2)c(O)n1[C@@H](CC)C1CCOCC1` [Example 528, 2-butyl-5-[4-(2-fluoro-3-methylpyridin-4-yl)benzenesulfonyl]-6-hydroxy-1-[(1S)-1-(oxan-4-yl)propyl]-1,4-dihydropyrimidin-4-one] it was 0.01 to 10 nM.
In the case of `CCCCc1nc(=O)c(S(=O)(=O)c2ccc(-c3cccc4c3C(=O)NC4)cc2)c(O)n1[C@@H](CC)c1cccc(C#N)c1` [Example 529, 3-[(1S)-1-{2-butyl-6-hydroxy-4-oxo-5-[4-(3-oxo-2,3-dihydro-1H-isoindol-4-yl)benzenesulfonyl]-1,4-dihydropyrimidin-1-yl}propyl]benzonitrile] it was 0.01 to 10 nM.
